Laboratory results reported in US7241791B2, “Substituted 4-(indazol-3-yl)phenols” (Wyeth, priority 2002, dated 2007).
“And” between values parts separate entries of the source, which are not always exact repeats. Identical values can stand only once.

Key:
[1] = target: T1, human ERα (Homo sapiens, UniProt P03372); test: Creatine kinase expression (ER/CK) in Ad5-wt-hERα infected HAECT-1 cells; conditions: for ER/CK % E2: efficacy relative to the maximal stimulation observed with E2
T1 sequence (P03372 1-595): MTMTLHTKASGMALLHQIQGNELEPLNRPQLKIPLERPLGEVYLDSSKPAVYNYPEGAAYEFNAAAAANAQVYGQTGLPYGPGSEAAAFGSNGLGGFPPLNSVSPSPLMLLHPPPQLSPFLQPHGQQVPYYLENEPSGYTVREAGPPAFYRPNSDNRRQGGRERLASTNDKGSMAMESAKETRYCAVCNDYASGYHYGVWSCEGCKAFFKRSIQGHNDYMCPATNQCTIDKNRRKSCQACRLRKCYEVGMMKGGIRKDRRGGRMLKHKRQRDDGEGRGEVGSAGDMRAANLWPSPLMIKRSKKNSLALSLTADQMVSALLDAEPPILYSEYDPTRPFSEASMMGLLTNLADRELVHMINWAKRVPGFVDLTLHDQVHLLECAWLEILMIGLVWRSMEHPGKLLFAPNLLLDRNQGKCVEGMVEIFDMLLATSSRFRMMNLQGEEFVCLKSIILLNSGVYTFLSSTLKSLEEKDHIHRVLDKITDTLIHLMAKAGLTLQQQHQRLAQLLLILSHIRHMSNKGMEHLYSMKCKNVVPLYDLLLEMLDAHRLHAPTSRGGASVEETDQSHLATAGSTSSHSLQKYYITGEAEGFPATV

[2] = target: T1, human ERα; test: NF-κB luciferase reporter (ER/NF-KB-luc) in Ad5-wt-hERα infected HAECT-1 cells; conditions: for Emax: HAECT1, read-out: ER/NF-KB-luc % E2, efficacy relative to the maximal inhibition observed with E2; for IC50: ER/NF-KB-luc IC50, Ad5-wt-ER infected HAECT-1 cells, IL-1β

| Compound | EC50 [1] | ER/CK % E2 [1] | Emax [2] | IC50 [2] | ER/NF-KB-luc % E2 ([2]; efficacy relative to the maximal inhibition observed with E2) |
| --- | --- | --- | --- | --- | --- |
| CCCn1nc2c(C)cccc2c1-c1ccc(O)cc1 [Example 38, 4-[7-methyl-2-propyl-2H-indazol-3-yl]phenol] | 0.025 µM | 70 % E2 | 89% | – | – |
| CC(C)n1nc(-c2ccc(O)cc2)c2cccc(Cl)c21 [Example 45, 4-(7-chloro-1-isopropyl-1H-indazol-3-yl)pheno] | 0.121 µM | 43 % E2 | 86% | 0.031 µM | – |
| Oc1ccc(-c2n[nH]c3cc(Cl)ccc23)cc1 [Example 134, 4-(6-chloro-1H-indazol-3-yl)phenol] | 1.93 µM | 36 % E2 | 76% | 0.897 µM | – |
| CCC(=O)Oc1ccc(-c2nn(C3CCCC3)c3c(F)cccc23)cc1 [Example 115, 4-(1-cyclopentyl-7-fluoro-1H-indazol-3-yl)phenyl propionate] | 0.166 µM | 91 % E2 | 82% | 0.027 µM and 0.246 µM | 71 % E2 |
| Oc1ccc(-c2n[nH]c3ccccc23)cc1 [Example 130, 4-(H-indazol-3-yl)phenol] | 0.205 µM | 54 % E2 | 97% | 0.062 µM | – |
| Cc1cc(O)ccc1-c1nn(C(C)C)c2c(-c3ccsc3)cccc12 [Example 247, 4-(1-isopropyl-7-thien-3-yl-1H-indazol-3-yl)-3-methylphenol] | 0.017 µM | 42 % E2 | 70% | 0.012 µM | – |
| CC(C)(C)OC(=O)N[C@@H](CCC(=O)Oc1ccc(-c2nn(C3CCCC3)c3c(F)cccc23)cc1)C(=O)OC(C)(C)C [Example 117, 1-tert-butyl 5-[4-(1-cyclopentyl-7-fluoro-1H-indazol-3-yl)phenyl] N-(tert-butoxycarbonyl)-L-glutamate] | 0.169 µM | 22 % E2 | 52% | 0.15 µM | – |
| CSc1ccc(-c2cccc3c(-c4ccc(O)cc4C)nn(C4CCCC4)c23)cc1 [Example 257, 4-{1-cyclopentyl-7-[4-(methylthio)phenyl]-1H-indazol-3-yl}-3-methylphenol] | 0.49 µM | 27 % E2 | 76% | 0.043 µM | – |
| Cn1nc(-c2ccc(O)c(O)c2)c2cccc(C(F)(F)F)c21 [Example 176, 4-[1-methyl-7-(trifluoromethyl)-1H-indazol-3-yl]benzene-1,2-diol] | 1.04 µM | 70 % E2 | 111% | 0.587 µM | – |
| CC(C)n1nc(-c2ccc(O)cc2)c2cccc(-c3cccs3)c21 [Example 227, 4-(1-isopropyl-7-thien-2-yl-1H-indazol-3-yl)phenol] | 0.279 µM | 21 % E2 | 70% | 0.056 µM | – |
| Cc1cccc2c(-c3ccc(O)cc3)nn(C(C)C)c12 [Example 39, 4-(1-isopropyl-7-methyl-1H-indazol-3-yl)phenol] | 0.057 µM | 46 % E2 | 89% | 0.009 µM | – |
| Cc1cccc2c(-c3ccc(O)cc3)n(C(C)C)nc12 [Example 40, 4-[2-isopropyl-7-methyl-2H-indazol-3-yl]phenol] | 0.022 µM | 79 % E2 | 108% | – | – |
| CCCn1nc(-c2ccc(O)cc2C)c2cccc(C(F)(F)F)c21 [Example 76, 3-methyl-4-[1-propyl-7-(trifluoromethyl)-1H-indazol-3-yl]phenol] | 0.057 µM | 20 % E2 | 86% | 0.022 µM | – |
| Cc1cccc(-n2nc(-c3ccc(O)cc3O)c3ccc(O)cc32)c1 [Example 23, 4-[6-hydroxy-1-(3-methylphenyl)-1H-indazol-3-yl]benzene-1,3-diol] | 0.072 µM | 55 % E2 | 76% | 0.239 µM | – |
| CCCn1nc(-c2ccc(O)cc2)c2cccc(F)c21 [Example 53, 4-(7-fluoro-1-propyl-1H-indazol-3-yl)phenol] | 0.184 µM | 31 % E2 | 84% | 0.058 µM | – |
| Oc1ccc(-c2nn(C3CCCC3)c3c(C(F)(F)F)cccc23)c(O)c1 [Example 66, 4-[1-cyclopentyl-7-(trifluoromethyl)-1H-indazol-3-yl] benzene-1,3-diol] | 0.017 µM | 32 % E2 | 56% | 0.029 µM | – |
| Cc1cc(O)ccc1-c1nn(C(C)C)c2c(Cl)cccc12 [Example 77, 4-(7-chloro-1-isopropyl-1H-indazol-3-yl)-3-methylphenol] | 0.302 µM | 29 % E2 | 87% | 0.041 µM | – |
| Cc1cc(O)ccc1-c1c2cccc(Cl)c2nn1C(C)C [Example 81, 4-(7-chloro-2-isopropyl-2H-indazol-3-yl)-3-methylphenol] | 0.308 µM | 62 % E2 | 92% | 0.033 µM | – |
| CCC(CC)Cn1nc(-c2ccc(O)cc2O)c2cccc(C(F)(F)F)c21 [Example 69, 4-[1-(2-ethylbutyl)-7-(trifluoromethyl)-1H-indazol-3-yl]benzene-1,3-diol] | 0.704 µM | 32 % E2 | 68% | 0.235 µM | – |
| CCCn1nc(-c2ccc(O)cc2)c2cccc(C(F)(F)F)c21 [Example 48, 4-[1-propyl-7-(trifluoromethyl)-1H-indazol-3-yl]phenol] | 0.079 µM | 49 % E2 | 107% | 0.042 µM | – |
| CCCn1nc2c(-c3ccccc3)cccc2c1-c1ccc(O)cc1 [Example 110, 4-(7-phenyl-2-propyl-2H-indazol-3-yl)phenol] | 0.012 µM | 82 % E2 | 89% | 0.002 µM | – |
| CCCCn1nc(-c2ccc(O)cc2)c2cc(C(F)(F)F)ccc21 [Example 206, 4-[1-butyl-5-(trifluoromethyl)-1H-indazol-3-yl]phenol] | 0.902 µM | 27 % E2 | 84% | 0.473 µM | – |
| OCCn1nc(-c2ccc(O)cc2)c2cccc(F)c21 [Example 188, 4-[7-fluoro-1-(2-hydroxyethyl)-1H-indazol-3-yl]phenol] | 2.45 µM | 31 % E2 | 90% | 0.751 µM | – |
| C=CCn1nc(-c2ccc(O)cc2)c2cccc(F)c21 [Example 50, 4-(1-allyl-7-fluoro-1H-indazol-3-yl)phenol] | 0.327 µM | 43 % E2 | 84% | 0.106 µM | – |
| C=CCn1nc2c(C(F)(F)F)cccc2c1-c1ccc(O)cc1C [Example 72, 4-[2-allyl-7-(trifluoromethyl)-2H-indazol-3-yl]-3-methylphenol] | 0.14 µM | 46 % E2 | 85% | 0.007 µM | – |
| CC(C)n1nc2c(F)cccc2c1-c1ccc(O)cc1 [Example 56, 4-(7-fluoro-2-isopropyl-2H-indazol-3-yl)phenol] | 0.477 µM | 47 % E2 | 96% | 0.014 µM | – |
| CC(C)n1nc(-c2ccc(O)cc2)c2cccc(-c3ccc(O)c(O)c3)c21 [Example 231, 4-[3-(4-hydroxyphenyl)-1-isopropyl-1H-indazol-7-yl]benzene-1,2-diol] | 3.25 µM | 32 % E2 | 78% | 0.382 µM | – |
